From article PMC3873415, “A Non-Biological Method for Screening Active Components against Influenza Virus from Traditional Chinese Medicine by Coupling a LC Column with Oseltamivir Molecularly Imprinted Polymers” (PLoS ONE, 2013)
Entries after “also recorded” stand apart in the source; their conditions may differ.

Legend:
MDCK cells = details: dog
[1] = test system: avian influenza virus H9N2; format: cell-based
[2] = test system: Influenza virus strain A/Goose/Dalian/3/2001 (H9N2); format: cell-based, avian influenza virus H9N2
[3] = test system: Influenza virus strain A/Goose/Dalian/3/2001 (H9N2); format: cell-based, avian influenza virus H9N2; remark: listed apart in the source
Kunming mice = details: cited from earlier work
enterovirus 71 [4] = details: enterovirus 71 on rhabdomyosarcoma cells; cited from earlier work
enterovirus 71 [5] = details: mice challenged with a lethal dose of enterovirus 71; cited from earlier work

Compound	TCD0 (maximum non-toxic concentration) (MDCK cells)	Activity (see Table 1) qualitative [1]	Activity (see Table 1) semi-quantitative [1]	Activity against H9N2 in vitro (in words) [1]	Activity: HI [2]	Activity: CPE [3]	LD50 (Kunming mice; Kunming mice, acute toxicity, 95% confidence limit 88.08-280.31 mg/kg)	tolerable dose (Kunming mice; Kunming mice, acute toxicity)	Morphological observation (Kunming mice; brain tissue of mice)	viral RNA copy number (enterovirus 71 [4])	mortality and clinical symptoms (enterovirus 71 [5])
CCOC(=O)C1=C[C@@H](OC(CC)CC)[C@H](NC(C)=O)[C@@H](N)C1 [OS (template), Oseltamivir]	0.5 mg/mL	1	3	had activity of alleviating CPE and HI against H9N2 in vitro	No hemagglutination (H) was found in all tested groups at 24, 48 or 72 h.	The CPE of 0.5mg/ml OS-treated group was more severe than viral control group within 48 h. The CPE of groups 0.25, 0.125 and 0.0625 mg/ml were milder than viral control at 72 h.	–	–	–	–	–
CC(=O)Oc1ccccc1C(=O)O [aspirin]	>0.5 mg/mL	0	0	–	No differences between all treatment and control groups.	No differences between all treatment and control groups.	–	–	–	–	–
O=C(/C=C/c1ccc(O)c(O)c1)O[C@@H]1C[C@](O)(C(=O)O)C[C@@H](O)[C@H]1O [chlorogenic acid]	0.016 mg/mL	0	0	–	No differences between all treatment and control groups.	No differences between all treatment and control groups.	–	–	–	–	–
O=C1CCC[C@@H]2[C@H]3CCCN4CCC[C@@H](CN12)[C@@H]34 [matrine]	0.4 mg/mL	1	3	had activity of alleviating CPE and HI against H9N2 in vitro and high	There was no H in 0.2 mg/ml matrine-treated group at 24 h and in 0.4mg/ml matrine-treated group at 24 or 48 h.	could protect MDCK cells from H9N2 in a dose-dependent manner; also recorded: The CPE of 0.4, 0.2 and 0.1 mg/ml matrine groups were milder than that of the viral control group	157.13 mg/kg	above 80 mg/kg	degenerative changes of the nerve cells in the brain tissue of the mice	could suppress the viral RNA copy number on rhabdomyosarcoma cells	reduced the mortality and relieved clinical symptoms
O=C1CCC[C@@H]2[C@H]3CCC[N+]4([O-])CCC[C@@H](CN12)[C@@H]34 (stereo partly shown) [oxymatrine]	>2 mg/mL	0	0	did not show any similar bioactivities	No differences between all treatment and control groups.	No differences between all treatment and control groups.	–	–	–	–	–
O=C1CCC[C@@H]2[C@H]3CCC[N+]4([O-])CCC[C@H](CN12)[C@@H]34 (stereo partly shown) [oxysophoridine]	>2 mg/mL	0	0	did not show any similar bioactivities	No differences between all treatment and control groups	No differences between all treatment and control groups	–	–	–	–	–
O=C1CCC[C@@H]2[C@H]3CCCN4CCC[C@H](CN12)[C@@H]34 [sophoridine]	>2 mg/mL	1	1	low	had HI activity only at concentration of TCD0; also recorded: There was no H of 2 mg/ml sophoridine-treated group at any test time points. But the rest test groups had H at all test time points	The CPE of 2 mg/ml sophoridine-treated group was more severe than that of the viral control at 48 h. The CPE of other test groups with low concentration were consistent with that of the viral control at 48 h.	–	–	–	–	–
phillyrin	–	1	1	–	had HI activity; also recorded: There was no H in 0.25 mg/ml phillyrin-treated group at 24 h and in 0.5mg/ml phillyrin-treated group at 24 or 48 h	could not alleviate CPE; also recorded: The CPE of 0.5 and 0.25 mg/ml phillyrin-treated groups were more severe than that of the viral control group within 48 h	–	–	–	–	–
